Measured values reported in PMC3292553, “Flavonoid Glycosides Isolated from Unique Legume Plant Extracts as Novel Inhibitors of Xanthine Oxidase” (PLoS ONE, 2012).

Biological target: T1, Xanthine oxidase from bovine milk (Bos taurus, UniProt P80457)
T1 construct: Xanthine oxidase from bovine milk and allopurinol were purchased from Sigma-Aldrich; purchased Sigma-Aldrich (St Louis MO, USA); host or cells: bovine milk (natural source)
Test: Assessment of XO activity (formation of uric acid from xanthine, 295 nm)
Format: biochemical
Details: pure compounds; for Ki: kinetic analysis (Lineweaver-Burk, Grafit 6); for IC50: XO inhibition; for Inhibition type: kinetic analysis
Experimental: XO activity was determined by measuring the formation of uric acid from xanthine within a set time. Changes in the levels of uric acid produced through the presence of the test samples allow the potency of inhibitors to be assessed. Initially the effect of the polyphenolic fractions and compounds on the inhibition of enzymatic activity was assessed at substrate concentration where maximum velocity was obtained. All initial reaction rates were in the linear scale and were measured over the first 4 min of the reaction. Each assay was performed in triplicates and the optical density was measured using a Hitachi U-1500 Spectrophotometer (San Jose, USA). […] The reaction was initiated through the addition of 43 mU unit of XO diluted in H2O. […] Control samples were prepared identically to the test samples without the addition of the specimen.
The measured absorbance was corrected for the contribution of the tested fractions and the pure polyphenolic compounds.
Statistical computations were carried out using SPSS 13.0 software. For statistical analysis, one-way ANOVA was applied followed by Dunnett's test for multiple pair-wise comparisons. Differences were considered significant at p<0.05. The steady state kinetic parameters (Km and Vmax) were determined (under standard assays conditions) by analyzing formation of uric acid from xanthine under initial rate conditions using the Lineweaver-Burk linearization of the Micaelis-Menten equation. The Ki values and the apparent kinetic parameters Km and Vmax were analyzed with the statistic package Grafit 6 (Erithacus Software, Ltd., Horley, UK).

T1 sequence (P80457 whole entry): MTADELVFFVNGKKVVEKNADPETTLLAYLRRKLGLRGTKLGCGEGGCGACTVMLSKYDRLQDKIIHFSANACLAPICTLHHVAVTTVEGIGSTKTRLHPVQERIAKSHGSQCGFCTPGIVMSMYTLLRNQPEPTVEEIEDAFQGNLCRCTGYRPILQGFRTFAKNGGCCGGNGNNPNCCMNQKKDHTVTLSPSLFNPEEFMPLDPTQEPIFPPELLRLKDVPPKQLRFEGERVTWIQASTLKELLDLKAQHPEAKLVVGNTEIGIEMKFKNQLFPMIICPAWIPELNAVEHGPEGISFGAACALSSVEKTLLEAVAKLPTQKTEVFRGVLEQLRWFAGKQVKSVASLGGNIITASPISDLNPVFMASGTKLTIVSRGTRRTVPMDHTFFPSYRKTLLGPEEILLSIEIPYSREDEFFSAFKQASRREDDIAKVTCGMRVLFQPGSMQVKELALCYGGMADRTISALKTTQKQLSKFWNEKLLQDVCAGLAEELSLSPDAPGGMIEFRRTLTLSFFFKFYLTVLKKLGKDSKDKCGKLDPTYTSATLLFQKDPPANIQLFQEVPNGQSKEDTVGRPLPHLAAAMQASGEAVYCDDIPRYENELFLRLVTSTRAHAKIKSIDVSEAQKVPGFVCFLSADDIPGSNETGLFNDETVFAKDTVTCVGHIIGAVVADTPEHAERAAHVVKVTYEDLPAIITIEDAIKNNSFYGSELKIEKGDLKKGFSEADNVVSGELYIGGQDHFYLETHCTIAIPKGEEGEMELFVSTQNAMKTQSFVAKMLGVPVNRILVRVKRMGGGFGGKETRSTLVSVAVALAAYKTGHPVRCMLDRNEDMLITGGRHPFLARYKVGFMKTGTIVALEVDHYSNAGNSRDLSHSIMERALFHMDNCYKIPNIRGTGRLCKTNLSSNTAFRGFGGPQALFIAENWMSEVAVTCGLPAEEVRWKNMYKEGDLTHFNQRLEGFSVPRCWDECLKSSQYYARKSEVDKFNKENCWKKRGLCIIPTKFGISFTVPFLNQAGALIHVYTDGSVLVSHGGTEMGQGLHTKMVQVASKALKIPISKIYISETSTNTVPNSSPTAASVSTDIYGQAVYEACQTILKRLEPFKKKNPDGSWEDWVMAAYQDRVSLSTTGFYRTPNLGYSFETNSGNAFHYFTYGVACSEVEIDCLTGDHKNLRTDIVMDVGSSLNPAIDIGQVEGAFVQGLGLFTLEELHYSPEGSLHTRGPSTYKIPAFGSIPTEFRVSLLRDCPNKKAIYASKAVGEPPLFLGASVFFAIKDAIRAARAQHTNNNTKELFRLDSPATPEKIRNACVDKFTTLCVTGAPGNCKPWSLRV

Row | SMILES | Ki | IC50 | Inhibition type
1 | Oc1ncnc2[nH]ncc12 [Allopurinol, 4-hydroxypyrazolo (3,4-d) pyrimidine, reference compound] |  |  | Competitive
2 | CC1OC(Oc2cc(O)c3c(=O)c(OC4OC(CO)C(O)C(O)C4OC4OC(C)C(O)C(O)C4O)c(-c4ccc(O)c(O)c4)oc3c2)C(O)C(O)C1O [Compound 1, Quercetin 3-O-[α-L-rhamnopyranosyl(1→2)-β-D-galactopyranosyl]-7-O-α-L-rhamnopyranoside] | 115 µM |  | Non competitive
3 | CC1=CC(=O)CC(C)(C)C1(O)C=CC(C)OC1OC(CO)C(O)C(O)C1O [Compound 3, (6S,9R)-Roseoside] | 767 µM |  | Non competitive
4 | CC1OC(Oc2cc(O)c3c(=O)c(OC4OC(CO)C(O)C(O)C4OC4OC(C)C(O)C(O)C4O)c(-c4ccc(O)c(O)c4)oc3c2)C(O)C(O)C1O [Compound 2, Quercetin 3-O[α-L-rhamnopyranosyl(1→2)-β-D-glucopyranosyl]-7-O-α-L-rhamnopyranoside] | 186 µM |  | 

Second part, the compound after the results:

Row | Ki | IC50 | Inhibition type | SMILES
5 | 50 µM |  |  | CC1OC(Oc2cc(O)c3c(=O)c(OC4OC(CO)C(O)C(O)C4OC4OC(C)C(O)C(O)C4O)c(-c4ccc(O)cc4)oc3c2)C(O)C(O)C1O [Compound 4b, Kaempferol 3-O-[α-L-rhamnopyranosyl(1→2)-β-D-galactopyranosyl]-7-O-α-L-rhamnopyranoside]
6 | 210 µM | 112 µM | Non competitive | CC1OC(Oc2cc(O)c3c(=O)c(OC4OCC(O)C(O)C4O)c(-c4ccc(O)cc4)oc3c2)C(O)C(O)C1O [Compound 9, Kaempferol 3-O-α-L-arabinopyranosyl-7-O-α-L-rhamnopyranoside]
7 | 345 µM |  | Non competitive | CC1OC(Oc2cc(O)c3c(=O)c(OC4OC(CO)C(O)C(O)C4O)c(-c4ccc(O)cc4)oc3c2)C(O)C(O)C1O [Compound 5, Kaempferol 3-O-β-D-galactopyranosyl-7-O-α-L-rhamnopyranoside]
8 | 651 µM |  | Non competitive | CC1OC(Oc2cc(O)c3c(=O)c(OC4OC(CO)C(O)C(O)C4OC4OC(C)C(O)C(O)C4O)c(-c4ccc(O)cc4)oc3c2)C(O)C(O)C1O [Compound 4a, Kaempferol 3-O-[α-L-rhamnopyranosyl(1→2)-β-D-glucopyranosyl]-7-O-α-L-rhamnopyranoside]
9 | 177 µM | 70.6 µM | Non competitive | CC1OC(Oc2cc(O)c3c(=O)c(OC4OC(CO)C(O)C(O)C4O)c(-c4ccc(O)cc4)oc3c2)C(O)C(O)C1O [Compound 10, Kaempferol 3-O-β-D-glucopyranosyl-7-O-α-L-rhamnopyranoside]
